For 33 compounds, EC50 results are on record in patent US12358921B2, “Antiviral heterocyclic compounds” (priority 2022, dated 2025).

Bounds are passed on as bounds.

In general, EC50 refers to the midpoint of the concentration-response curve. A high value points to a need for much substance.

Assay [1] deals with hMPV A2 TN/94-49. In words: HMPV antiviral assay Method 2 (LLC-MK2 cells with CP-100-356, ATP-Lite). It is filed as cell-based. To be noted: hMPV A2 TN/94-49, LLC-MK2 cells, 4 μM CP-100-356, Method 2. In a few lines:
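The protective effect was measured after 7 days at 37 °C by ATP-Lite luminescence and expressed as % cell health relative to virus-only and cells-only wells, with EC50 from a four-parameter logistic. Cells were LLC-MK2 infected with strain A2 TN/94-49 (MOI 0.16) with final 2 μM CP-100-356 and 2 μg/mL TPCK-trypsin; 10 duplicate concentrations from 200 nM, 2.5-fold steps.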

In assay [2] the test system is HUMAN RSV-A (“LONG” STRAIN). In words: RSV-A assay (CPE, ATPlite) in Hep-2 cells. It is filed as cell-based. As to conditions: human respiratory syncytial virus, 120 h, MOI 0.1, 5-day incubation. From the text: Methods for RSV-A Assay Hep-2 cells, (originally derived from tumors grown in irradiated-cortisonised weanling rats that had been injected with epidermoid carcinoma tissue from the larynx of a person, but later found to be indistinguishable from HeLa cells by PCR DNA analysis), were used for the culturing of genotype A, “Long” strain RSV. Flasks were inoculated with RSV and viral stocks were collected once cytopathic effect (CPE) was greater than 90%. Viral stocks in 25% sucrose media were snap frozen using liquid nitrogen to increase viral stability. Viral stock titers were quantified by tissue culture infectious dose 50% (TCID50) using 8,000 cells per well and 3-fold viral dilutions across a 96-well plate, cultured for 4 days. Viral stock titers were also quantified by a plaque forming unit assay, as described elsewhere.
Following extensive parameter testing, the final assay is run as follows: Hep-2 cells are seeded into the inner 60 wells of a 96-well plate at 8,000 cells per well in a volume of 50 μL using Growth Media (DMEM without phenol red, 1% L-Glut, 1% Penn/Strep, 1% nonessential amino acids, 10% heat-inactivated FBS). 2-fold serial dilutions of control and test compounds are added to the wells in duplicate in a total volume of 25 μL. Viral stock is then added to the wells at a multiplicity of infection (MOI) of 0.1 in a volume of 25 μL, bringing the total volume of each well to 100 μL. The MOI is calculated using the PFU/mL, or TCID50 if unavailable. Each 96-well plate has a control column of 6 wells with cells and virus but no compound (negative control, max CPE), a column with cells but no compound or virus (positive control, minimum CPE), and a column with no cells or virus or compound (background plate/reagent control). The control wells with cells but no virus are given an additional 25 μL of growth media containing an equal quantity of sucrose as those wells receiving the viral stock in order to keep consistent in media and volume conditions. The outer wells of the plate are filled with 125 μL of moat media (DMEM, 1% Penn/Strep) to act as a thermal and evaporative moat around the test wells. Following a 5-day incubation period, the plates are read using ATPlite (50 uL added per well), which quantifies the amount of ATP (a measure of cell health) present in each well. Assay plates are read using the Envision luminometer. […] EC50 ranges are as follows: A<0.2 μM; B>0.2 μM.

On to `COc1cc(C(=O)NC[C@@](O)(c2cccc(F)n2)c2cc3c(c(-c4cc(Cl)c(F)cc4F)n2)OC[C@]3(C)C(N)=O)cc2cn(C(F)F)nc12` [Example 205], for which the EC50 in assay [1] and in assay [2] was less than 200 nM each time.
In the case of `COc1cc(C(=O)NC[C@@](O)(c2ccccc2)c2cc3c(c(-c4cccc(Cl)c4Cl)n2)OC[C@]3(C)C(N)=O)cc2oc(C3CC3)nc12` [Example 96], the EC50 in assay [1] and in assay [2] was less than 200 nM throughout.
Regarding `COc1cc(C(=O)NC[C@@](O)(c2cccc(F)c2)c2cc3c(c(-c4ccc5c(c4Cl)OC(F)(F)O5)n2)OC[C@]3(C)C(N)=O)cc2oc(C3CC3)nc12` [Example 286], the EC50 in assay [1] and in assay [2] was less than 200 nM in each case.
For `COc1cc(C(=O)NC[C@@](O)(c2cnccn2)c2cc3c(c(-c4cc(Cl)c(F)cc4F)n2)OC[C@]3(C)C(N)=O)cc2cn(C3CC3)nc12` [Example 487], the EC50 in assay [1] and in assay [2] was less than 200 nM each time.
For `COc1cc(C(=O)NC[C@@](O)(c2ccccc2)c2cc3c(c(-c4cc(Cl)c(F)cc4F)n2)OC[C@]3(C)C(N)=O)cc2cc(Cl)nnc12` [Example 113], the EC50 in assay [1] and in assay [2] was less than 200 nM in each case.
As to `COc1cc(C(=O)NC[C@@](O)(c2cccc(F)c2)c2cc3c(c(-c4ccc5c(c4Cl)OC(F)(F)O5)n2)OC[C@]3(C)C(N)=O)cc2oc(C)nc12` [Example 285], the concentration giving a half-maximal response (EC50) in assay [1] and in assay [2] was less than 200 nM throughout.
As to `COc1cc(C(=O)NCC(O)(c2cc(F)nc(F)c2)c2cc3c(c(-c4cccc(Cl)c4Cl)n2)OC[C@]3(C)C(N)=O)cc2cn(C3CC3)nc12` (stereo partly drawn) [Example 499], the EC50 in assay [1] and in assay [2] was less than 200 nM each time.
Regarding `COc1cc(C(=O)NC[C@@](O)(c2ccccc2)c2cc3c(c(-c4cc(C(F)(F)F)c(F)cc4F)n2)OC[C@]3(C)C(N)=O)cc2cn(C3CC3)nc12` [Example 302], the EC50 in assay [1] and in assay [2] was less than 200 nM each time.
As for `COc1cc(C(=O)NC[C@@](O)(c2cccc(C#N)c2)c2cc3c(c(-c4cc(Cl)c(F)cc4F)n2)OC[C@]3(C)C(N)=O)cc2cn(C3CC3)nc12` [Example 488], the EC50 in assay [1] and in assay [2] was less than 200 nM throughout.
With `C[C@]1(C(N)=O)COc2c1cc([C@@](O)(CNC(=O)c1cc(OC3CC3)c3nn(C4(F)CC4)cc3c1)c1cccc(F)c1)nc2-c1cccc(Cl)c1Cl` [Example 339], the EC50 in assay [1] and in assay [2] was less than 200 nM throughout.
Consider `COc1cc(C(=O)NC[C@@](O)(c2ccccc2)c2cc3c(c(-c4cc(Cl)c(F)cc4F)n2)OC[C@]3(C)C(N)=O)cc2oc(C3(F)CC3)nc12` [Example 241], for which the EC50 in assay [1] and in assay [2] was less than 200 nM each time.
For `COc1cc(C(=O)NC[C@@](O)(c2cccc(S(C)(=O)=O)c2)c2cc3c(c(-c4cc(Cl)c(F)cc4F)n2)OC[C@]3(C)C(N)=O)cc2cn(C3CC3)nc12` [Example 483], the EC50 in assay [1] and in assay [2] was less than 200 nM each time.
For the compound `[2H]C([2H])([2H])NC(=O)[C@@]1(C)COc2c1cc([C@@](O)(CNC(=O)c1cc(OC)c3nn(C4(F)CC4)cc3c1)c1ccccc1)nc2-c1cc(Cl)c(F)cc1F` [Example 109], the concentration for a half-maximal effect (EC50) in assay [1] and in assay [2] was less than 200 nM throughout.
Take `COc1cc(C(=O)NC[C@@](O)(c2cccc(F)c2)c2cc3c(c(-c4cccc(Cl)c4Cl)n2)OC[C@]3(C)C(N)=O)cc2cc(C3CC3)nn12` [Example 336]: the EC50 in assay [1] and in assay [2] was less than 200 nM throughout.
For the compound `C[C@]1(C(N)=O)COc2c1cc([C@@](O)(CNC(=O)c1cc(OC3CC3)c3nn(C4CC4)cc3c1)c1ccccc1)nc2-c1cc(Cl)c(F)cc1F` [Example 98], the EC50 in assay [1] and in assay [2] was less than 200 nM throughout.
Take `COc1cc(C(=O)NC[C@@](O)(c2cccc(S(N)(=O)=O)c2)c2cc3c(c(-c4cc(Cl)c(F)cc4F)n2)OC[C@]3(C)C(N)=O)cc2cn(C3CC3)nc12` [Example 486]: the values for the EC50 in assay [1] and in assay [2] were greater than 200 nM and less than 200 nM, respectively.
Consider `COc1cc(C(=O)NC[C@@](O)(c2cccc(F)c2)c2cc3c(c(-c4ccc(C(C)(C)O)cc4)n2)OC[C@]3(C)C(N)=O)cc2cn(C3(F)CC3)nc12` [Example 397], for which the EC50 in assay [1] and in assay [2] was greater than 200 nM in each case.
For the compound `COc1cc(C(=O)NC[C@@](O)(c2cccc(Cl)n2)c2cc3c(c(-c4cc(Cl)c(F)cc4F)n2)OC[C@]3(C)C(N)=O)cc2cn(C3CC3)nc12` [Example 489], the EC50 in assay [1] and in assay [2] was less than 200 nM each time.
In the case of `C[C@]1(C(N)=O)COc2c1cc([C@@](O)(CNC(=O)c1ccc3nc(C4CC4)oc3c1)c1ccccc1)nc2-c1cccc(Cl)c1Cl` [Example 97], the EC50 in assay [1] and in assay [2] was less than 200 nM each time.
As for `COc1cc(C(=O)NC[C@@](O)(c2cccc(F)n2)c2cc3c(c(-c4cc(Cl)c(F)cc4F)n2)OC[C@]3(C)C(N)=O)cc2cn(C3CC3)nc12` [Example 203], the EC50 in assay [1] and in assay [2] was less than 200 nM each time.
Turning to `COc1cc(C(=O)NC[C@@](O)(c2ccccc2)c2cc3c(c(-c4cccc(F)c4Cl)n2)OC[C@]3(C)C(N)=O)cc2cn(C3(F)CC3)nc12` [Example 368], the EC50 in assay [1] and in assay [2] was less than 200 nM in each case.
For the compound `COc1cccc([C@](O)(CNC(=O)c2cc(OC)c3nn(C4CC4)cc3c2)c2cc3c(c(-c4cccc(Cl)c4Cl)n2)OC[C@]3(C)C(N)=O)n1` [Example 496], the EC50 in assay [1] and in assay [2] was less than 200 nM throughout.
For the compound `[2H]C([2H])([2H])NC(=O)[C@@]1(C)COc2c1cc([C@@](O)(CNC(=O)c1cc(OC)c3nc(C4CC4)oc3c1)c1ccccc1)nc2-c1cc(Cl)c(F)cc1F` [Example 110], the concentration giving a half-maximal response (EC50) in assay [1] and in assay [2] was less than 200 nM each time.
As for `COc1cc(C(=O)NC[C@](O)(c2cccc(F)c2)c2cc3c(c(-c4ccc(C(C)(C)O)cc4)n2)OC[C@]3(C)C(N)=O)cc2cn(C3(F)CC3)nc12` [Example 398], the EC50 in assay [1] and in assay [2] was greater than 200 nM each time.
As to `COc1cc(C(=O)NC[C@@](O)(c2ccccc2)c2cc3c(c(-c4cc(C(F)F)c(F)cc4F)n2)OC[C@]3(C)C(N)=O)cc2cn(C(F)F)nc12` [Example 300], the EC50 in assay [1] and in assay [2] was less than 200 nM in each case.
Consider `C[C@]1(C(N)=O)COc2c1cc([C@@](O)(CNC(=O)c1ccc3nc(C4CC4)oc3c1)c1cccc(F)c1)nc2-c1cc(C(F)(F)F)c(F)cc1F` [Example 308], for which the half-maximal effective concentration (EC50) is greater than 200 nM in assay [1] and less than 200 nM in assay [2].
As for `COc1cc([C@](O)(CNC(=O)c2cc(OC)c3nn(C(F)F)cc3c2)c2cc3c(c(-c4cccc(Cl)c4Cl)n2)OC[C@]3(C)C(N)=O)cc(OC)n1` [Example 498], the EC50 in assay [1] and in assay [2] was less than 200 nM each time.
For `COc1cc(C(=O)NC[C@@](O)(c2ccccc2)c2cc3c(c(-c4cc(Cl)c(F)cc4F)n2)OC[C@]3(C)C(N)=O)cn2cc(C3CC3)nc12` [Example 115], the EC50 in assay [1] and in assay [2] was less than 200 nM in each case.
With `COc1cc(C(=O)NC[C@@](O)(c2cccc(F)n2)c2cc3c(c(-c4cc(Cl)c(F)cc4F)n2)OC[C@]3(C)C(N)=O)cn2cc(C3CC3)nc12` [Example 154], the EC50 in assay [1] and in assay [2] was less than 200 nM each time.
With `COc1cc(C(=O)NC[C@@](O)(c2ccccc2)c2cc3c(c(-c4cc(C(F)(F)F)c(F)cc4F)n2)OC[C@]3(C)C(N)=O)cc2cn(C(F)F)nc12` [Example 304], the EC50 in assay [1] and in assay [2] was less than 200 nM in each case.
In the case of `COc1cc(C(=O)NC[C@@](O)(c2ccccc2)c2cc3c(c(-c4cccc(Cl)c4F)n2)OC[C@]3(C)C(N)=O)cc2cn(C3(F)CC3)nc12` [Example 369], the EC50 in assay [1] and in assay [2] was less than 200 nM in each case.
Consider `COc1cc(C(=O)NC[C@@](O)(c2ccccc2)c2cc3c(c(-c4cc(Cl)c(F)cc4F)n2)OC[C@]3(C)C(N)=O)cc2oc(N)nc12` [Example 237], for which the EC50 in assay [1] and in assay [2] was less than 200 nM each time.
For the compound `COc1cc(C(=O)NC[C@@](O)(c2ccnc(N)c2)c2cc3c(c(-c4cc(Cl)c(F)cc4F)n2)OC[C@]3(C)C(N)=O)cc2cn(C3CC3)nc12` [Example 484], the EC50 in assay [1] and in assay [2] was less than 200 nM throughout.
